Like-named read-outs stand apart in the source and are kept apart here.

Data on one compound can be found in article PMC10035389, “Safety, Tolerability, and Pharmacokinetics of TAK-931, a Cell Division Cycle 7 Inhibitor, in Patients with Advanced Solid Tumors: A Phase I First-in-Human Study” (Cancer Research Communications, 2022).

The series in a line: Plasma and urine pharmacokinetics, noncompartmental analysis. It counts as in vivo, human. As to conditions: for half-life / Tmax: human, plasma; for half-life: po; for Tmax: oral. On the procedure: DLTs included: cycle 1 grade ≥3 hematologic and non-hematologic events or grade 2 non-hematologic events considered by the investigator to be TAK-931-related, grade 2 ejection fraction decrease, >2 weeks delay in initiating cycle 2 (1 week for schedules D and E), and >50% TAK-931 dose reduction in cycle 1 due to treatment-related adverse events (AEs; see Supplementary Materials and Methods for full DLT criteria). Toxicity was evaluated by NCI Common Terminology Criteria for Adverse Events (version 4.03). Tumor response was measured using the RECIST (version 1.1) ([16]). Serial blood samples for pharmacokinetic analysis were collected during cycle 1 on days 1 and 7 (schedule B), 1 and 8 (schedules A and D), or 1 and 9 (schedule E). Pharmacokinetic parameters were estimated from concentration–time profiles using noncompartmental methods with WinNonlin® Phoenix™ version 8.1 (Certara, Princeton, NJ). pMCM2 was detected semiquantitatively by IHC of histologic sections of formalin-fixed, paraffin-embedded skin and tumor biopsies using anti-pMCM2 (3378-1, Epitomics Inc.; ref. [15]). Quantitative image analysis determined pMCM2 levels as “histologic score nuclei (H-score).” Skin punch biopsies (2–4 mm) were obtained during screening or predose on cycle 1, day 1 and for patients in schedules A, B, and D, postdose on any drug dosing day after 3 consecutive dosing days in cycle 1. A postdose skin biopsy was obtained on day 9 in schedule E. Fresh tumor biopsy pairs were collected predose and postdose on any dosing day after the completion of 3 consecutive dosing days in cycle 1 from patients who received doses considered to have biological effect.
The safety population included patients who received ≥1 dose of TAK-931. The pharmacodynamic-evaluable population comprised patients from the safety population with a baseline and ≥1 additional postbaseline biopsy sample that was suitable for pMCM2 analysis. The pharmacokinetic-evaluable population included patients with sufficient dosing and TAK-931 concentration–time data to estimate pharmacokinetic parameters. The response-evaluable population included patients in the safety population with measurable disease at baseline and ≥1 postbaseline response assessment.

In the case of `Cc1[nH]ncc1-c1cc2nc([C@@H]3CC4CCN3CC4)[nH]c(=O)c2s1` [TAK-931, simurosertib], the “Accumulation following higher doses” value (120 and 150 mg) is recorded as “minor accumulation”. The “Renal clearance (CLr) as share of total apparent clearance” value (estimated amount excreted in urine, n = 79) was “approximately 8%”. For the same compound, the half-life (50 mg, oral administration of 50 mg, read-out: Terminal half-life (converted)) is around 5 h; the half-life (oral administration, read-out: Estimated T1/2) was 5 to 6 h; the half-life (oral administration, read-out: Mean half-life (T1/2)) lay within 4.58 to 6.53 h. Moreover, the Tmax is, setting by setting: (50 mg dose, read-out: Tmax) around 2 h; (postdose, over the dose range of 20–50 mg, read-out: Median time to maximum plasma concentration (Tmax)) 1 to 4 h. In addition, the “Systemic exposures between day 1 and days 7, 8, or 9” value (multiple dosing) was “mostly unchanged”. In addition, the “Plasma exposure vs dose” value (single- and multiple-dose administration over 20–50 mg) is listed as “approximately dose proportional”. Also, the “Systemic exposure vs dose (dose-normalized AUC24)” value (single- and multiple-dose administration over the range 20–150 mg) is given as “approximately dose proportional”.
